# Source: ChEMBL document CHEMBL1153121, “2-Arylbenzoxazoles as CETP inhibitors: Substitution of the benzoxazole moiety” (Bioorg Med Chem Lett, 2010)
# Target: Cholesteryl ester transfer protein (Homo sapiens) (UniProt P11597)
# Assay: inhibition of human CETP assessed as cholesteryl ester transfer by fluorescence transfer assay relative to control
# Design: concentration or dose not given beside the values
# Settings: concentration not given here
# Sequence of Cholesteryl ester transfer protein (Homo sapiens) (P11597 whole entry, looked up): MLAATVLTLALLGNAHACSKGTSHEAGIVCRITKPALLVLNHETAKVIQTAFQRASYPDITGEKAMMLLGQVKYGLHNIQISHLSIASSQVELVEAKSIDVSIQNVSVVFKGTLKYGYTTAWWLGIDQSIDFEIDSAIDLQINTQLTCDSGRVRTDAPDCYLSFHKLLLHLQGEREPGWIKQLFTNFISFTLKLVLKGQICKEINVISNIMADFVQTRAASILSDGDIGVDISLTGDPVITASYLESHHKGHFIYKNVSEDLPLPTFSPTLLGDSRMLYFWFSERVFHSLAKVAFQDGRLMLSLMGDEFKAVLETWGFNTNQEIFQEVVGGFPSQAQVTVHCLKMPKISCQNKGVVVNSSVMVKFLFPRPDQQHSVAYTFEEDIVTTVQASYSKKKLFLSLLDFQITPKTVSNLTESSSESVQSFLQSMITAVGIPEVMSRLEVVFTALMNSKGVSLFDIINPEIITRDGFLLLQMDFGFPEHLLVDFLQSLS
row,Structure (SMILES),inhibition
1,Cc1ccc2nc(-c3ccc(NC(=O)COc4ccccc4C)cc3)oc2c1,34%
2,Cc1ccccc1OCC(=O)Nc1ccc(-c2nc3cccc(F)c3o2)cc1,36%
3,Cc1ccccc1OCC(=O)Nc1ccc(-c2nc3ccc(F)cc3o2)cc1,50%
4,Cc1ccccc1OCC(=O)Nc1ccc(-c2nc3ccc([N+](=O)[O-])cc3o2)cc1,71%
5,Cc1ccccc1OCC(=O)Nc1ccc(-c2nc3c([N+](=O)[O-])cccc3o2)cc1,42%
6,Cc1ccccc1OCC(=O)Nc1ccc(-c2nc3cc([N+](=O)[O-])ccc3o2)cc1,79%
7,Cc1ccc2oc(-c3ccc(NC(=O)COc4ccccc4C)cc3)nc2c1,89%
8,Cc1ccccc1OCC(=O)Nc1ccc(-c2nc3cccc(Cl)c3o2)cc1,71%
